Data on one substance can be found in US20050112131A1, “Methods of adjuvant photodynamic therapy to enhance radiation sensitization” (priority 2002, published 2005).

One experiment concerns RIF-1 tumors. Briefly: Tumor pO2 by EPR oximetry during verteporfin photodynamic therapy. It counts as in vivo, mice. The method, then:
Measurements of tumor partial pressure of oxygen (pO2) were taken in mice that harbored tumors derived from injection of transformed cells. Radiation-induced fibrosarcoma (RIF-1) cells were used for in vivo studies. RIF-1 cells were obtained from the National Cancer Institute (NCI) and originated from the laboratory of James B. Mitchell. The cells were grown in culture in RPMI 1640 cell culture medium, supplemented with 10% fetal bovine serum (FBS), L-glutamine, and appropriate antibiotics. The cells were not passaged more than four times from the original stock. Cell cultures were scaled up to large culture flasks, then removed and resuspended in medium lacking FBS and injected at 4×10^6 cells/mouse in a 50 μl volume. Intradermal injection delivered the cancer cells into the upper right leg of female C3h/HeJ mice (age 5-6 weeks) approximately 11-14 days before the anticipated treatment time.
Verteporfin was obtained from QLT Phototherapeutics Inc. (Vancouver, BC, Canada) for use as photosensitizer. The photoactive molecule is a benzoporphyrin derivative mono-acid ring ‘A’ (BPD-MA), which was suspended in a lipid preparation comprising 1.77% of BPD-MA and the remaining 98.23% composed of the lipids. Verteporfin was reconstituted in phosphate buffered saline (PBS) at a final concentration of 0.2 mg BPD-MA/ml, then injected into mice lateral tail vein to deliver a dose of 1 mg BPD-MA per kg of body weight. The drug was allowed to incubate for varying times prior to light exposure.
A diode laser system with 200 mW average power was used, at a wavelength of 690 nm (Applied Optronics, South Plainfield, Conn.). The beam was delivered to the tumor site in animals through a 140 μm fiber-optic, and was expanded onto the tumor in a circular top-hat beam, using a fiber-optic collimator (Thor Labs, North Newton, N.J.). The beam diameter for in vivo experiments was 1.1 cm, producing an irradiance of 200 mW/cm^2. Light treatment was given transcutaneously with shaven animals.
Animals were anesthetized by isoflurane at a concentration of 1.5% mixed with 26% oxygen in a continuous flow, delivered by inhalation. The animal was maintained at 37° C. on a heated water pad. Warm air was allowed to flow over the animal. In the first treatment group, tumors were exposed to light three hours after verteporfin injection. The second group received light only 15 minutes after injection. These animals were monitored for tumor pO2 before, during, and after treatment. The second experimental group is thought to be indicative of eliciting a vascular occlusion response, and contrasts effects from 3-hour photosensitizer incubation. The third group received light without prior photosensitizer injection.
Tumor pO2 was monitored with an oxygen-sensitive electron paramagnetic resonance (EPR) probe material, synthetic lithium phthalocyanine (LiPc), which was implanted into tissue and allowed for stable measurements of tissue pO2 over several weeks. […] LiPc molecules between 50 and 200 μm in diameter were implanted into the animal tumors with a 23-gauge needle at least 24 hours before photodynamic therapy, allowing for resolution of acute fluctuations in pO2 due to injection. The particles were implanted at a depth of 1-3 mm within the tumor.
The animals were placed in an L-band (1.2 GHz) EPR spectrometer with a custom-made microwave bridge for measurements of tissue pO2. The external loop resonator was positioned over the tumor to record the EPR signal of the LiPc from within the tissue. […]

Another experiment concerns RIF-1 cells. The experiment can be described thus: Cell viability (MTS assay) after in vitro photodynamic therapy. Type of experiment: cell-based, mouse. The following applies: 1 μg/ml BPD, 3-hour incubation, maximal light dose, MTS 24 hours after treatment. The procedure: RIF-1 cells were plated three days prior to treatment in black, plastic 96-well plates with a transparent bottom (Fisher Scientific, Springfield, N.J.) at a density of 5000 cells/200 μl medium/well. After 3 days of growth in 5% CO2 at 37° C. in a humidified incubator, the cells were used in photodynamic therapy. On the day of treatment, the medium was replaced with 100 μl/well of medium with 1 μg/ml BPD in the verteporfin preparation. After a 3-hour incubation, the BPD solution was removed and rinsed once with Hanks Balanced Salt Solution (HBSS), then 100 μl of fresh medium was added to the wells. Cells were irradiated in groups of four wells, with blank wells between the treated groups to ensure that each group of wells received the correct dose of light. […]
Surviving cells were assayed 24 hours after treatment, using the MTS assay kit (CellTiter 96®AQueous, Promega, Madison, Wis.). […] After incubation for 1 h at 37° C., the absorbance of the formazan product at […] was measured directly in an automated plate reader (ThermoMax, Molecular Devices, Menlo Park, Calif.). The quantity of formazan product as measured by the amount of 490 nm absorbance units is directly proportional to the number of living cells in culture, and absorbance values from groups of wells that received the same light dose were averaged. […]

As for “benzoporphyrin derivative mono-acid ring ‘A’ (BPD-MA) [Verteporfin]”, in the experiment on RIF-1 tumors (1 mg/kg BPD-MA i.v., light 3 hours after injection), the “tumor pO2 at 1 h post-treatment” value is “returned to within control, or pre-treatment values”. For the same substance, the “final tumor pO2 immediately after treatment” value in the experiment on RIF-1 tumors (1 mg/kg BPD-MA i.v., light 3 hours after injection, 690 nm, 144 J/cm^2, p=0.048 vs control) was found to be 15.2±6.9 mm Hg. Besides, in the experiment on RIF-1 tumors (1 mg/kg BPD-MA i.v., light 3 hours after injection, value before light), the “initial tumor pO2” value is 2.8±1.0 mm Hg. The “average tumor pO2 prior to light exposure” value in the experiment on RIF-1 tumors (1 mg/kg BPD-MA injected 15 min prior to irradiation) was 6.8±1.6 mm Hg. Besides, the “average tumor pO2 immediately following treatment” value with RIF-1 tumors (1 mg/kg BPD-MA injected 15 min prior to irradiation (vascular targeting)) was 4.1±0.3 mm Hg. In addition, the cell survival with RIF-1 cells came out at 20±5%.
